In patent publication US20250152580A1, “METHODS FOR TREATING IMMUNE DISEASES” (Ascentage Pharma (Suzhou) co., Ltd., priority 2022, published 2025):
“Also recorded” adds a separate entry of the source.

What was measured:
Assay type in all cases: in vivo
OXA induced DTH model = test: OXA induced delayed type hypersensitivity (DTH) model in Balb/c mice
Description: A delayed-type hypersensitivity (DTH) reaction is an expression of cell-mediated immunity and plays a major role in the pathology and chronicity of many inflammatory disorders. Delayed-type hypersensitivity (DTH) reactions can be induced by allergens, including oxazolone.
Female Balb/c mice (6-8 weeks old) were obtained from Shanghai Jihui Experiment Animal Feeding Co. Ltd. Animals were housed and handled in a temperature-controlled environment with a 12-h light/12-h dark cycle. A total of 48 mice were assigned to 6 groups by randomization based on body weight.
To induce DTH, all right ears of mice except the G1 sham control group were applied with oxazolone (OXA). Briefly, skin inflammation was induced by topical administration with 100 μL of 1.5% OXA dissolved in acetone/olive oil on day 1 and repeated 20 μL of 1% OXA on day 6. G1 sham control group was treated same volume of vehicles. Therapeutic group of 100 mg/kg Cpd. 4 (po, 0 h/6 h after challenge on day 6) or 0.05 mg/ear dexamethasone (topical, 1 h/6 h after challenge on day 6) were applied to the mice. […]
Ear thickness were measured with a micrometer before challenge on day 6 and 24 h after oxazolone challenge on Day 7 and reported as the mean change in ear thickness. […]

[1] = test system: DSS induced IBD (colitis) model; test: DSS induced inflammatory bowel disease (IBD) model in C57BL/6 mice; conditions: for pathological score (colon): day 8, vehicle 10.10±0.17
Description: Female C57BL/6 mice (8 weeks old) were obtained from Beijing Vital River Laboratory Animal Co. Ltd. Animals were housed and handled in a temperature-controlled environment with a 12-h light/12-h dark cycle. A total of 50 mice were assigned to 5 groups by randomization based on body weight.
On Day 0, colitis was induced by administration of 3% DSS (dextran sodium sulfate, molecular weight 36,000-50,000) in drinking water ad libitum for 8 days. 8-week-old mice were divided into 5 groups: Group 2, DSS treatment group (vehicle, po, qd, from day 0 to day 7); Group 3, DSS with 30 mg/kg Cpd. 4 (po, qd, from day 0 to day 7); Group 4, DSS with 100 mg/kg Cpd. 4 (po, qd, from day 0 to day 7); and Group 5, DSS with 50 mg/kg Cyclosporine (po, qd, from day 0 to day 7). For the Group 1 (G1) Sham group, the mice were provided drinking water without DSS.
Clinical signs of IBD were assessed every day based on the scores of disease activity index (DAI) which was evaluated from three parameters using a scoring system from 0 to 4: stool consistency (0, normal stool; 1, soft but still formed stool; 2, soft and not formed stool; 3, very soft and wet stool; 4, watery diarrhea), bleeding score (0, negative hemoccult; 1, weak positive hemoccult; 2, positive hemoccult; 3, blood trace in stool visible; 4, gross rectal bleeding) and body weight loss (0, no body weight loos; 1, 1-5% body weight loss; 2, 6-10% body weight loss; 3, 11-20% body weight loss; 4, >20% body weight loss).
At the end of induction with DSS, the animals were euthanized, dissected and the entire colon was quickly removed and gently cleared of feces.
The entire colon was weighed, and the total length was measured. Colon weight gain and shortening is an indirect marker of inflammation. As expected, DSS increased colon weight to 243.8±10.73 mg. Cpd. […] 4 treatment (FIG. 11).
The colon of a mouse was Swiss-rolled and fixed with neutralized PFA followed by H&E staining. After that, the pathologists from WuXi clinical pathological analysis platform, who were blinded to animal ID, reviewed the H&E staining and scored. The pathological scoring standards were as follows: crypt architecture (normal, 0; severe crypt distortion with loss of entire crypts, 3), degree of inflammatory cell infiltration (normal, 0; dense inflammatory infiltrate, 3), muscle thickening (normal, 0; marked muscle thickening present, 3), goblet cell depletion (absent, 0; present, 1) and crypt abscess (absent, 0; present, 1).
At the end of the study (day 8), all the animals were sacrificed by CO2, and the colon tissues were collected and fixed in 10% formalin for pathological analysis (H&E and LFB staining). The histopathological score was evaluated microscopically in a blinded manner.

[2] = test system: LPS inhalation induced lung neutrophils infiltration model; test: LPS inhalation induced neutrophils infiltration model in C57BL/6 mice; conditions: Cpd. 4 50 mg/kg oral each day, Cpd. X 50 mg/kg iv twice a week, Cpd. XI 12 mg/kg iv twice a week, week 4-10; compared with Vehicle
Protocol: C57BL/6 mice (6-8 weeks old) were obtained from Shanghai LC Laboratory Animal Co. Ltd. Animals, housed and handled in a temperature-controlled environment with a 12-h light/12-h dark cycle. A total of 60 female C57BL/6J mice will be modeled by atomization inhalation LPS 3 times a week for 10 weeks (adjustments may be made according to animal health status). LPS concentration is at 0.7 mg/mL. On each day of challenge, animals in G1 will receive aerosol inhalation of PBS and intravenous injection of Vehicle; animals in G2 will receive aerosol inhalation of LPS and intravenous injection of Vehicle; animals in G3 will be given aerosol inhalation of LPS and intravenous injection of 50 mg/kg Cpd. X twice a week (D1/4) from week 4-10; animals in G4 will be given aerosol inhalation of LPS and intravenous injection of 12 mg/kg Cpd.XI twice a week (D1/4) from week 4-10; animals in G5 will be given aerosol inhalation of LPS and oral administration of 50 mg/kg Cpd. 4 each day from week 4-10; animals in G6 will be given aerosol inhalation of LPS and oral administration of dexamethasone 1 hour before each challenge. Lungs will be gently lavaged via the tracheal cannula with 0.8 mL of PBS containing 1% BSA and 0.6 mM EDTA 48 hr after the last LPS exposure. The procedure will be repeated twice with 0.8 mL of PBS containing 1% BSA and 0.6 mM EDTA. The bronchoalveolar lavage fluid (BALF) will be centrifuged at 300×g for 5 min at 4° C., the cell pellet will be resuspended in 1.5 mL PBS. Total numbers of neutrophils in BALF will be counted using a hemocytometer.

[3] = Cpd. 4 30 and 100 mg/kg po qd, compared with Vehicle

`O=C(NS(=O)(=O)c1ccc(NC[C@H]2COCCO2)c([N+](=O)[O-])c1)c1ccc(N2CCN(CC3=C(c4ccc(Cl)cc4)CC4(CCC4)CC3)CC2)cc1Oc1cnc2[nH]ccc2c1` [Cpd. 4, (S)-N-((4-(((1,4-dioxan-2-yl)methyl)amino)-3-nitrophenyl)sulfonyl)-2-((1H-pyrrolo[2,3-b]pyridin-5-yl)oxy)-4-(4-((6-(4-chlorophenyl)spiro[3.5]non-6-en-7-yl)methyl)piperazin-1-yl)benzamide] was tested, and the “increase of ear thickness (day 7 − day 6)” value (OXA induced DTH model; 100 mg/kg po 0 h/6 h after challenge on day 6, vehicle 0.24±0.01 mm) was 0.22±0.03 mm, the “increase of ear thickness (in words)” value (OXA induced DTH model; Cpd. 4 100 mg/kg po, dexamethasone 0.05 mg/ear topical 1 h/6 h after challenge on day 6) was “moderately reduced” and the colon length ([1]; 30 mg/kg po qd day 0 to day 7, vehicle 4.81±0.08 cm) was 5.25±0.11 cm. For the same molecule, the colon weight ([1]; 30 mg/kg po qd day 0 to day 7, vehicle 243.8±10.73 mg) was 188.4 ± 10.48 mg, the “pathological score (colon)” value ([1]; 30 mg/kg po qd) was 6.70±0.25 and the “pathological score (colon)” value ([1]; 100 mg/kg po qd) was 3.70±0.25. For the same molecule, the “disease activity index (DAI), clinical score of IBD” value ([1]; Cpd. 4 30 and 100 mg/kg po qd day 0 to day 7, cyclosporine 50 mg/kg po qd, compared with Vehicle) was “significantly reducing the clinical score; also recorded: significantly reduced”, the “colon length (in words)” value [1, 3] was “significantly increased” and the “colon weight (in words)” value [1, 3] was “significantly decreased”. For the same molecule, the “pathological score (in words)” value ([1]; Cpd. 4, compared with Vehicle) was “significantly decreased” and the “BALF neutrophils (infiltration in lung)” value [2] was “significantly reducing the BALF neutrophils; also recorded: significantly reduced”.
